Test results published in ChEMBL document CHEMBL1135461, “Conformations and receptor activity of desmopressin analogues, which contain gamma-turn mimetics or a psi[CH(2)O] isostere” (2002).

system: Rattus norvegicus; assay: In vivo antidiuretic activity in female Sprague-Dawley rats by intravenous administration using Vasopressin house standard (561 IU/mg)

| SMILES | Agonist activity [IU mg-1] |
| --- | --- |
| N=C(N)NCCC[C@H](NC(=O)[C@@H]1CCCN1C(=O)[C@@H]1CSSC[C@H](N)C(=O)N[C@@H](Cc2ccc(O)cc2)C(=O)N[C@@H](Cc2ccccc2)C(=O)N[C@@H](CCC(N)=O)C(=O)N[C@@H](CC(N)=O)C(=O)N1)C(=O)NCC(N)=O [VASOPRESSIN] | 561 |
| C[C@@H]1NC(=O)[C@H](Cc2ccccc2)NC(=O)[C@H](Cc2ccc(O)cc2)NC(=O)CCSSC[C@@H](C(=O)N2CCC[C@H]2C(=O)N[C@H](CCCN=C(N)N)C(=O)NCC(N)=O)NC(=O)[C@H](CC(N)=O)NC1=O | 645 |
| N=C(N)NCCC[C@@H](NC(=O)[C@@H]1CCCN1C(=O)[C@@H]1CSSCCC(=O)N[C@@H](Cc2ccc(O)cc2)C(=O)N[C@@H](Cc2ccccc2)C(=O)N[C@@H](CCC(N)=O)C(=O)N[C@@H](CC(N)=O)C(=O)N1)C(=O)NCC(N)=O [DESMOPRESSIN] | 1000 |
| C[C@@H]1OC[C@H](Cc2ccccc2)NC(=O)[C@H](Cc2ccc(O)cc2)NC(=O)CCSSC[C@@H](C(=O)N2CCC[C@H]2C(=O)N[C@H](CCCN=C(N)N)C(=O)NCC(N)=O)NC(=O)[C@H](CC(N)=O)NC1=O | 0.56 |
| CC1OC2CN(C1=O)[C@@H](CC(N)=O)C(=O)N[C@H](C(=O)N1CCC[C@H]1C(=O)N[C@H](CCCN=C(N)N)C(=O)NCC(N)=O)CSSCCC(=O)N[C@@H](Cc1ccc(O)cc1)C(=O)N[C@H]2Cc1ccccc1 (stereo in doubt; 6) | 0.0026 |
